Experimental findings from US6720306B2, “Tetrapartate prodrugs” (priority 1997, dated 2004) are described below.

This experiment concerns human ovarian carcinoma (A2780). Briefly: Efficacy of PEG-leu-doxorubicin analogs against subcutaneous human ovarian carcinoma (A2780) xenograft in nude mice. In kind it is in vivo. To be noted: intravenous Qd7 × 3, 30 mg/kg/dose. On the procedure:
The efficacy of PEG-leu-doxorubicin analogs against a subcutaneous human ovarian carcinoma (A2780) injected into nude mice was determined as follows.
Following at least one week of acclimation, tumors were established in nude mice by injecting 1×10^6 […] harvested A2780 ovarian carcinoma cells in a single subcutaneous site, on the left axillary flank region of each animal. The tumor injection site was observed twice weekly and measured once palpable. The tumor volume for each mouse was determined by measuring two dimensions with calipers and calculated using the formula: tumor volume=(length×width^2)/2). When tumors reached the average volume of approximately 80 mm^3, the mice were divided into their respective experimental groups, which consists of vehicle (20 m M sodium phosphate in 0.6% NaCl) controls, Leu-Doxorubicin, compound 1 of Example 1, compound 10 of Example 4, and compound 12 of Example 5). The mice were sorted to evenly distribute tumor size, grouped into 6 mice/cage, and ear punched for permanent identification. Drugs were dosed intravenously via the tail vein once per week for three weeks (Qd7×3). Mouse weight and tumor sizes were measured at the beginning of study and twice weekly through week 5.
The overall growth of tumors was calculated as the mean tumor volume at one week following the end of the treatment. A percent treatment over control (T/C) value was also calculated when the control group's median tumor size reached approximately 800-1100 mm^3 and again at one week following treatment. The T/C value in percent is a non-quantitative indication of anti-tumor effectiveness.
(Xenograft models place foreign cells or tissue in a host animal.)

Regarding `COc1cccc2c1C(=O)c1c(O)c3c(c(O)c1C2=O)C[C@@](O)(C(=O)CO)C[C@@H]3O[C@H]1C[C@H](NC(=O)[C@@H](N)CC(C)C)[C@H](O)[C@H](C)O1` [Leu-Dox, Leucine-doxorubicin], the “Tumor Volume (mean ± sem) Day 21” value (A2780 xenograft in nude mice, established tumors ~80 mm^3, n = 6/group, day 21) is 659 ± 173 mm^3. For the same compound, the “T/C (%) At Day 21” value (median tumor volume treatment vs control one week after final dosage (day 21)) stood at 19.7%. In addition, for the setting “median tumor volume treatment vs control when control median reached approximately 1000 mm^3”, the “T/C (%) At 1000 mm^3” value was found to be 26.3%.
